Results on 2 molecules are retold here after publication PMC9061853, “Luminescent bis(benzo[d]thiazolyl)quinoxaline: facile synthesis, nucleic acid and protein BSA interaction, live-cell imaging, biopharmaceutical research and cancer theranostic application” (RSC Advances, 2019).

Broadly, the half-life is the time needed for the level to fall by half in the phase considered. A higher half-life goes with slow loss. As a reminder, the solubility is the dissolved amount per volume that the medium holds.

Data set [1] is described as follows: Biopharmaceutical classification (BCS / BDDCS). As to conditions: primarily classified.
Data set [2] is described as follows: Metabolic stability in human liver microsomes. The class given is in vitro ADME. The note with it: for % Metabolism in 30 min: 0.5 μM, 0.5 mg ml^−1 protein, NADPH, 37 °C; for half-life at 0.5 μM: human, liver microsomes. As to the method:
(§1) The in vitro metabolic rate of 7g was determined in liver microsomes and the intrinsic clearance (CLintr) was estimated. The study was conducted at 0.5 μM substrate concentration and microsomal protein concentration of 0.5 mg ml^−1. Metabolic stability study in the presence of microsomes and cofactor NADPH was performed at 37 °C, 60 rpm for 30 min time duration. NADPH free control incubation was performed simultaneously for 30 min to understand if there are any non-enzymatic metabolism related issues. […] Intrinsic clearance as given in Table 6, was calculated using eqn (8). ^†

A short description of data set [3]: Metabolic stability in dog liver microsomes. The class given is in vitro ADME. As to conditions: for % Metabolism in 30 min: 0.5 μM, 0.5 mg ml^−1 protein, NADPH, 37 °C; for half-life at 0.5 μM: dog, liver microsomes. How it is done: as §1
A general note: Liver microsomes are a subcellular fraction often used to study metabolism.

Data set [4] can be described thus: Buffer solubility (LC-MS/MS). It is filed as physicochemical. The note with it: aqueous buffer, kinetic from dmso stock; pH 7.4 buffer, 2 h incubation. How it is done: LC-MS/MS methods were developed for compound 7g to quantify the drug concentration and in vitro study (i.e. buffer solubility, buffer stability, metabolic stability, and permeability) in a systemic manner (Table 4). Chromatographic elution conditions were set with the use of 5 mM ammonium formate containing 0.1% formic acid and acetonitrile containing 0.1% formic acid with C8, Kromasil, and 4.6 × […] as a stationary phase (Fig. S5a and b ^†). […] For the data analysis, % accuracy of compound 7g was calculated and it was soluble up to 25 μM (Fig. 3, eqn (7) ^†).
The in vitro solubility and stability of 7g were evaluated in pH 7.4 buffer. The buffer solubility and stability studies were conducted at six different concentrations ranging from 3.13 to 100 μM. For the data analysis, % stability of compound 7g at 120 min was calculated with respect to 0 min time point samples and it was stable up to 2 hours in pH 7.4 buffers. Data analysis was performed through the eqn (8) ^† and was tabulated (Table 4). Compound 7g found to be stable up to 2 hours with % remaining of 71% in pH 7.4.

For data set [5], the system named is HeLa cells. The data set is described as follows: Live cell imaging / cellular uptake. The class given is cell-based, human. The note with it: 50 μM in buffer, 4 h incubation, fluorescence microscopy. As to the method: Live cell imaging was performed in HeLa cell line. Compound 7e in 50 μM concentration in the buffer, were incubated with HeLa cells for 4 h. […] Significant potency, selectivity and cellular imaging property of compound 7e, mark it as a theranostic agent.
Fig. 2 Fluorescence and bright-field images of live cells: (a) fluorescent image of HeLa cell with compound 7e (50 μM in PBS buffer); incubation time 2 hours (b) bright-field image of HeLa cell with compound 7e (50 μM in PBS buffer); incubation time 2 hours. Scale bar 100 μm.
Then the 96 well plate was placed on the shaker for 10 min and subsequently the absorbance was recorded by the ELISA reader at λ = 490 nm. […] The data were expressed as the growth inhibition percentage calculated according to the equation: % growth inhibition = 100 − [(AD × 100)/AB], where AD is the absorbance measured for sample and AB is the absorbance measured for blank wells (cells with a […]
After incubating for 4 h at 37 °C, all the cells were washed with PBS buffer (pH 7.4). Then, the fluorescence images were recorded with an Olympus Fluorescence microscope with 480- […]
Interaction of complex (7e ) with DNA was recorded using UV-Visible absorption spectroscopy and ethidium bromide displacement assay by fluorescence spectroscopy. […]
The CT-DNA concentration in buffer were calculated by using the UV absorbance value at 260 nm and from the known molar […]

For `COc1ccc2nc(COc3ccccc3-c3nc4ccccc4s3)c(COc3ccccc3-c3nc4ccccc4s3)nc2c1` [Compound 7g, 2,2'-((((6-methoxyquinoxaline-2,3-diyl)bis(methylene))bis(oxy))bis(2,1-phenylene))bis(benzo[d]thiazole)], in data set [1], the BCS class entry is on record as “BCS class 4” and the BDDCS class entry was “BDDCS class 4”. For the same molecule, in data set [2] (HLM set 1), the CLint amounted to 28 μl per min per mg protein, the “% Metabolism in 30 min” value was found to be 35% and the half-life at 0.5 μM is 0.821 h. For the same molecule, in data set [2] (HLM set 2), the CLint came out at 25 μl per min per mg protein, the “% Metabolism in 30 min” value turned out to be 38% and the half-life at 0.5 μM amounted to 0.932 h. Also, in data set [3] (DLM set 1), the CLint is 18 μl per min per mg protein, the “% Metabolism in 30 min” value came out at 21% and the half-life at 0.5 μM was 1.28 h. Besides, in data set [3] (DLM set 2), the CLint is 12 μl per min per mg protein, the “% Metabolism in 30 min” value stood at 14% and the half-life at 0.5 μM was 1.91 h. In data set [4], this molecule registered a solubility at 2 h of no more than 25 µM.

On to `Clc1cc2nc(COc3ccccc3-c3nc4ccccc4s3)c(COc3ccccc3-c3nc4ccccc4s3)nc2cc1Cl` [Compound 7e], for which, in data set [5], the “fluorescence of drug-treated live cells (cellular uptake)” value is “significant red fluorescence”.
